Assay results from patent US20260183302A1, “PDK1 REGULATORY COMPOUND AND COMPOSITION CONTAINING THE SAME” (PROVIBIO CO., LTD., priority 2024, published 2026).

Key:
psoriasis-induced mice = experiment: In vivo psoriasis model (Aldara cream, Imiquimod); design: species or system BALB/c mice
Experimental: To verify the therapeutic effect of the compound according to the present invention on psoriasis, a psoriasis animal model was established as follows, and the compound according to the present invention was administered to evaluate the alleviation of skin lesions and changes in immune cell patterns.
For the establishment of the psoriasis animal model, BALB/c mice (7 weeks old, female, 20 g) were purchased from HanabioTech Co., Ltd. and acclimatized to the rearing environment for one week.
Subsequently, the hair on the mouse back was shaved using a hair removal device for the first time, and then completely shaved using a depilatory cream (Nicrin Cream (80% thioglycolic acid, Il Dong Pharmaceutical)) for the second time. The mice were then kept for 24 hours to confirm the absence of skin damage.
To verify the psoriasis prevention and therapeutic effects of the compounds according to the present invention, the following experimental groups were established:
[Normal control group (Normal, Not Treatment), psoriasis-induced control group (Psoriasis, Not Treatment), psoriasis-induced vehicle control group (Psoriasis, Vehicle), experimental group (GO85, GO86, GO88, GO89, PBK-2024-010, PBK-2024-026, PBK-2025-002, PBK-2025-004, PBK-2025-016, PBK-2025-017, PBK-2025-023)]. […]
Body weights of mice in each group were measured on days 1, 4, and 8 after the start of injection and psoriasis induction. […]
To evaluate the therapeutic effect in a psoriasis-induced mouse model, the PASI (Psoriasis Area and Severity Index) score was measured.
The PASI score is based on three criteria: erythema, scaling, and skin thickness, each scored from 0 (none) to 4 (severe). […]
Observations were conducted daily at the same time, and the same observer visually assessed each criterion and recorded the scores, with the results presented in FIG. 13. […]
All samples were measured in duplicate, and the absorbance was measured at 450 nm using a microplate reader.

[1] = system: HCT-116 colon cancer cell lines; experiment: Matrigel Invasion Assay on HCT-116 colon cancer cell line; assay type: cell-based, human; conditions: HCT-116, Matrigel, 24 hours treatment, vs DMSO
Experimental: To evaluate the metastasis inhibitory efficacy of the compounds of the present invention on HCT-116 colon cancer cell lines, an Invasion Assay using Matrigel was performed to assess the cells' invasion ability.
First, Matrigel was thawed on ice in RPMI-1640 medium without FBS, then diluted with DMEM at a ratio of 1:20.
The diluted Matrigel mixture was applied to the upper chamber at 100 μl per well, and 750 μl of RPMI-1640 without FBS was added to the lower chamber.
The plates were then incubated at 37° C. for 1 hour to allow the Matrigel to solidify.
After coating, the Matrigel mixture in the upper chamber was removed using a pipette, and the chamber was washed with RPMI without FBS.
Human-derived colorectal cancer cell line HCT-116, obtained from the Korean Cell Bank, was cultured in RPMI-1640 medium containing 10% FBS.
Following stabilization, the cells were harvested using Trypsin-EDTA treatment, centrifuged at 1,200 rpm for 3 minutes, the supernatant was removed, and the cells were resuspended in the same medium, the medium in the lower chamber was replaced with 750 μl of RPMI-1640 supplemented with 10% FBS, and the cells were seeded into the upper chamber at a density of 5×10^4 cells/well.
The cells were cultured for 24 hours after attachment, and then the compounds according to the present invention (G078, G085, G086, G088, G089, PBK-2024-010, PBK-2025-010, PBK-2025-013, PBK-2025-016) and the control substance DMSO were diluted and added to the upper chamber after removing the medium.
Additionally, the medium in the lower chamber was replaced with fresh RPMI-1640 containing FBS, and the culture was continued.
After an additional 24 hours, the medium was removed, and 1 ml of methanol was added for 10 minutes to fix the cells.
Subsequently, 1 ml of Hematoxylin was added and reacted for 5 minutes, followed by 1 ml of Eosin, which was reacted for 30 seconds. The sample was then washed with distilled water (DW).
After staining was complete, any remaining cells in the upper chamber were removed. Finally, the infiltrated cells were observed under a microscope, photographed, and the degree of infiltration was analyzed.

`Nc1nc(NC(=O)CCCCCCCCCCCCN2CCN(CCO)CC2)nc2nc[nH]c12` [Compound 15, 12-[4-(2-hydroxyethyl)piperazin-1-yl]dodecyl-N-(6-aminopurine-2-yl) carboxamide] was tested, and the “efficacy in improving dermatological symptoms” value (psoriasis-induced mice) was “excellent efficacy in improving dermatological symptoms” and the “number of infiltrated cells (invasion)” value [1] was “reduction in the number of infiltrated cells”.
